Laboratory results: patent US20110040086A1, “Novel Beta-Lactam Antibiotics, Methods for Their Production, and Their Use” (DRITTE PATENTPORTFOLIO BETEILIGUNGSGESELLSCHAFT MB, priority 2007, published 2011)

Legend:
B. subtilis AWD 166 = assay: agar diffusion test (antimicrobial effect); format: cell-based, Bacillus subtilis
Procedure, shortened: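 Inhibition zone diameters (mm) read after 20 h incubation at 37 °C. Discs carried 10 μg, 50 μg or 100 μg of test substance, dissolved in methanol or distilled water, on agar inoculated with B. subtilis AWD 166 for dense but separate colonies.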

[1] = test system: Bacillus megaterium SBUG 1152; assay: agar diffusion test (Test System 1, antimicrobial effect); format: cell-based
Procedure, shortened: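 Paper discs loaded with 10 μg, 50 μg or 100 μg of test substance (methanol or water solution) placed on nutrient agar seeded with 10^6 cells of a 17-h B. megaterium culture. After 20 h at 37° C., zone of inhibition measured as diameter in mm.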

[2] = test system: Escherichia coli SBUG 1135; assay: as above; format: cell-based; design: key: r = resistant (no detectable zone of inhibition)
Procedure, shortened: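 Disc diffusion: compound at 10 μg, 50 μg, 100 μg on sensi-discs, three per plate of nutrient agar seeded with ~10^6 E. coli SBUG 1135 (overnight culture, 17 h, 37° C, diluted 1:100). After 20 h incubation at 37° C, zone diameter recorded in mm.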

[3] = logP value by HPLC according to Donovan et al.; settings: HPLC, methanol/0.1% phosphoric acid pH 2
Procedure: • Operating temperature 18-24° C. • Flow 1.5 mL/min • Linear gradient (methanol/0.1% phosphoric acid pH 2) from 10% to 100% methanol in 9.4 min, equilibrium time between 2 runs 6 min
ca. 0.5 mg of analyte is added to 0.5 ml of a standard solution (440 mg methyl phenyl sulfonate and 380 μl toluene in 150 mL methanol). 2 μl of this sample solution is injected.
Because the distribution coefficients of the two standards running in each test are known, the distribution coefficient of the analytes can be determined from the relationships of the analyte/standard retention times.

Compound | Diameter of zone of inhibition (B. subtilis AWD 166; Quantity n 0.029) [mm] | Diameter of zone of inhibition (B. subtilis AWD 166; Quantity n 0.14) [mm] | Diameter of zone of inhibition (B. subtilis AWD 166; Quantity n 0.29) [mm] | Diameter of zone of inhibition ([1]; Quantity n 0.029) [mm] | Diameter of zone of inhibition ([1]; Quantity n 0.14) [mm] | Diameter of zone of inhibition ([1]; Quantity n 0.29) [mm] | Diameter of zone of inhibition ([2]; Quantity n 0.029) | Diameter of zone of inhibition ([2]; Quantity n 0.14) [mm] | Diameter of zone of inhibition ([2]; Quantity n 0.29) [mm] | Diameter of zone of inhibition (B. subtilis AWD 166; Quantity n 0.019) [mm] | Diameter of zone of inhibition (B. subtilis AWD 166; Quantity n 0.1) [mm] | Diameter of zone of inhibition (B. subtilis AWD 166; Quantity n 0.19) [mm] | Diameter of zone of inhibition ([1]; Quantity n 0.019) [mm] | Diameter of zone of inhibition ([1]; Quantity n 0.1) [mm] | Diameter of zone of inhibition ([1]; Quantity n 0.19) [mm] | Diameter of zone of inhibition ([2]; Quantity n 0.019) | Diameter of zone of inhibition ([2]; Quantity n 0.1) [mm] | Diameter of zone of inhibition ([2]; Quantity n 0.19) [mm] | further results
3-chlorine-7-[2-(2-methoxycarbonyl-3,6-dioxocyclohexa-1,4-dienylamino)-2-phenyl-acetylamino]-8-oxo-1-thia-5-azabicyclo[4.2.0]oct-3-en-4-carboxylic acid [1k] | 30 | 36 | 38 | 30 | 36 | 38 | 18 mm | 24 | 28 |  |  |  |  |  |  |  |  |  | 
7-[2-(2-carbamoyl-3,6-dioxocyclohexa-1,4-dienylamino)-2-(4-hydroxyphenyl)-acetylamino]-desacetoxycephalosporanic acid [1b] |  |  |  |  |  |  |  |  |  | 22 | 30 | 32 | 22 | 30 | 32 | r | 14 | 18 | 
7-[2-(2-ethoxycarbonyl-3,6-dioxocyclohexa-1,4-dienylamino)-2-(4-hydroxyphenyl)-acetylamino]-desacetoxycephalosporanic acid [1d] | 22 | 30 | 34 | 18 | 30 | 34 | r | 12 | 16 |  |  |  |  |  |  |  |  |  | 
7-{2-2-(2-hydroxyethylcarbamoyl)-3,6-dioxyocyclohexa-1,4-dienylamino]-2-(4-hydroxyphenyl)-acetylamino}-desacetoxycephalosporanic acid [1a] |  |  |  |  |  |  |  |  |  | 24 | 30 | 32 | 22 | 30 | 32 | r^2 | 14 | 16 | 
7-{2-[2-(2-hydroxyethylcarbamoyl)-3,6-dioxocyclohexa-1,4-dienylamino]-2-phenyl-acetylamino}-desacetoxycephalosporanic acid [1e] | 22 | 30 | 32 | 20 | 28 | 32 | r^2 | 16 | 18 |  |  |  |  |  |  |  |  |  | 
CC1=C(C(=O)O)N2C(=O)C(NC(=O)C(NC3=C(C(N)=O)C(=O)C=CC3=O)c3ccccc3)C2SC1 (stereo not shown) [1f, 7-[2-(2-carbamoyl-3,6-dioxocyclohexa-1,4-dienylamino)-2-phenyl-acetylamino]-desacetoxycephalosporanic acid] |  |  |  |  |  |  |  |  |  |  | 30 |  |  | 30 |  |  | 14 |  | Diameter of zone of inhibition (B. subtilis AWD 166; Quantity n 0.02): 24 mm; Diameter of zone of inhibition (B. subtilis AWD 166; Quantity n 0.2): 32 mm; Diameter of zone of inhibition ([1]; Quantity n 0.02): 20 mm; Diameter of zone of inhibition ([1]; Quantity n 0.2): 32 mm; Diameter of zone of inhibition ([2]; Quantity n 0.02): r; Diameter of zone of inhibition ([2]; Quantity n 0.2): 18 mm
O=C(O)C1=C(Cl)CSC2C(NC(=O)C(NC3=C(C(=O)NCCO)C(=O)C=CC3=O)c3ccccc3)C(=O)N12 (stereo not shown) [1i, 3-chlorine-7-{2-[2-(2-hydroxyethylcarbamoyl)-3,6-dioxocyclohexa-1,4-dienylamino]-2-phenyl-acetylamino}-8-oxo-1-thia-5-azabicyclo[4.2.0]oct-3-en-4-carboxylic acid] | 30 | 36 | 38 | 26 | 32 | 34 | 18 mm | 24 | 28 |  |  |  |  |  |  |  |  |  | logP value [3]: 1.81
NC(=O)C1=C(NC(C(=O)NC2C(=O)N3C(C(=O)O)=C(Cl)CSC23)c2ccccc2)C(=O)C=CC1=O (stereo not shown) [1j, 3-chlorine-7-[2-(2-carbamoyl-3,6-dioxocyclohexa-1,4-dienylamino)-2-phenyl-acetylamino]-8-oxo-1-thia-5-azabicyclo[4.2.0]oct-3-en-4-carboxylic acid] |  |  |  |  |  |  |  |  |  |  | 38 |  |  | 36 |  |  | 26 |  | Diameter of zone of inhibition (B. subtilis AWD 166; Quantity n 0.02): 30 mm; Diameter of zone of inhibition (B. subtilis AWD 166; Quantity n 0.2): 40 mm; Diameter of zone of inhibition ([1]; Quantity n 0.02): 28 mm; Diameter of zone of inhibition ([1]; Quantity n 0.2): 40 mm; Diameter of zone of inhibition ([2]; Quantity n 0.02): 18 mm; Diameter of zone of inhibition ([2]; Quantity n 0.2): 28 mm
CCOC(=O)C1=C(NC(C(=O)NC2C(=O)N3C(C(=O)O)=C(Cl)CSC23)c2ccccc2)C(=O)C=CC1=O (stereo not shown) [1l] |  |  |  |  |  |  |  |  |  | 30 |  | 38 | 30 |  | 38 | 18 mm |  | 28 | Diameter of zone of inhibition (B. subtilis AWD 166; Quantity n 0.09): 34 mm; Diameter of zone of inhibition ([1]; Quantity n 0.09): 34 mm; Diameter of zone of inhibition ([2]; Quantity n 0.09): 24 mm
